Values joined by “and” are separate entries in the source; they are usually repeats but may differ in a detail not shown here. Equal values may be shown once.
Target: T1, human P2X4 (Homo sapiens, UniProt Q99571)
T1 sequence (Q99571 1-388): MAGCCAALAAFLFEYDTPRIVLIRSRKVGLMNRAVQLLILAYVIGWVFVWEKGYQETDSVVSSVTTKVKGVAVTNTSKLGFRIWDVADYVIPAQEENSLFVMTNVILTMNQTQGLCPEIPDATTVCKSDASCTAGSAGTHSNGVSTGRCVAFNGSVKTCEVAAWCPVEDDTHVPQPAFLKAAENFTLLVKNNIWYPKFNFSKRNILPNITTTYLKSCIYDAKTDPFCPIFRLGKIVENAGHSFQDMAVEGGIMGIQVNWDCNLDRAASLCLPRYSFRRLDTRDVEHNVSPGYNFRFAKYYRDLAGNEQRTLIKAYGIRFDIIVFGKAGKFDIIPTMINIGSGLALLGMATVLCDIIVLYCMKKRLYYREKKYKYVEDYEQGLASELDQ
Test: Human P2X4 HEK Cell FLIPR Assay
Format: cell-based
Conditions: agonist Bz-ATP at EC80; for Emax: HEK293, HEK293 cells, percentage of maximal inhibition, read-out: Human P2X4 HEK Cells (FLIPR Assay) avg Efficacy [%]; for IC50: HEK293 cells, individual values listed where some fall outside detection range
How it was run: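 Calcium flux read by FLIPR for 120 sec after Bz-ATP challenge at EC80 (established each assay day), following 30 min room-temperature compound preincubation in dye-loaded stable human P2X4 HEK293 cells. Peak RFU over basal normalized to agonist control; IC50, maximal inhibition and Hill coefficient from triplicate means.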

Compound | Emax [%] | IC50
NS(=O)(=O)c1cc(NC(=O)Cc2cccc(C(F)(F)F)c2Cl)c(C(F)(F)F)cc1-n1cc(F)cn1 [Example 536, 2-[2-Chloro-3-(trifluoromethyl)phenyl]-N-[4-(4-fluoro-1H-pyrazol-1-yl)-5-sulfamoyl-2-(trifluoromethyl)phenyl]acetamide] | 67 | 12400 nM and 16800 nM
Cn1c(C#N)ccc1-c1ccc(NC(=O)Cc2ccccc2Cl)cc1S(N)(=O)=O [Example 530, 2-(2-Chlorophenyl)-N-[4-(5-cyano-1-methyl-1H-pyrrol-2-yl)-3-sulfamoylphenyl]acetamide] | 112 | 33 nM
NS(=O)(=O)c1cc(NC(=O)Cc2ccccc2Cl)ccc1-c1cnn(CCOC(F)(F)F)c1 [Example 279, 2-(2-Chlorophenyl)-N-(3-sulfamoyl-4-{1-[2-(trifluoromethoxy)ethyl]-1H-pyrazol-4-yl}phenyl)acetamide] | 96 | 61 nM
NS(=O)(=O)c1cc(NC(=O)Cc2ccccc2Cl)ccc1-c1ccccc1 [Example 266, 2-(2-Chlorophenyl)-N-(2-sulfamoylbiphenyl-4-yl)acetamide] | 94 | 7 nM
NS(=O)(=O)c1cc(NC(=O)Cc2ccccc2C(F)(F)F)ccc1-n1cc(F)cn1 [Example 140, N-[4-(4-Fluoro-1H-pyrazol-1-yl)-3-sulfamoylphenyl]-2-[2-(trifluoromethyl)phenyl]-acetamide] | 92 | 77 nM
NS(=O)(=O)c1cc(NC(=O)Cc2ccc(C(F)F)cc2)ccc1-c1cncc(F)c1 [Example 477, 2-[4-(Difluoromethyl)phenyl]-N-[4-(5-fluoropyridin-3-yl)-3-sulfamoylphenyl]acetamide] | 91 | 259 nM
NS(=O)(=O)c1cc(NC(=O)Cc2ccccc2OC(F)F)ccc1-n1cc(Br)cn1 [Example 69, N-[4-(4-Bromo-1H-pyrazol-1-yl)-3-sulfamoylphenyl]-2-[2-(difluoromethoxy)-phenyl]acetamide] | 80 | 210 nM
NS(=O)(=O)c1cc(NC(=O)Cc2ccc(F)cc2Cl)ccc1-n1cnc(C(F)(F)F)n1 [Example 56, 2-(2-Chloro-4-fluorophenyl)-N-{3-sulfamoyl-4-[3-(trifluoromethyl)-1H-1,2,4-triazol-1-yl]phenyl}acetamide] | 70 | 121 nM
COc1ccc(CC(=O)Nc2ccc(-n3ncc(C(F)(F)F)n3)c(S(N)(=O)=O)c2)cc1 [Example 406, 2-(4-Methoxyphenyl)-N-{3-sulfamoyl-4-[4-(trifluoromethyl)-2H-1,2,3-triazol-2-yl]phenyl}acetamide] | 64 | 6840 nM
CC(C)(C)C(O)Cn1cc(-c2ccc(NC(=O)Cc3ccccc3Cl)cc2S(N)(=O)=O)cn1 (centres unmarked) [Example 361, 2-(2-Chlorophenyl)-N-{4-[1-(2-hydroxy-3,3-dimethylbutyl)-1H-pyrazol-4-yl]-3-sulfamoylphenyl}acetamide] | 83 | 97 nM
NS(=O)(=O)c1cc(NC(=O)Cc2ccccc2Cl)ccc1-c1cncc(OC(F)(F)F)c1 [Example 307, 2-(2-Chlorophenyl)-N-{3-sulfamoyl-4-[5-(trifluoromethoxy)pyridin-3-yl]phenyl}acetamide] | 62 | 115 nM
NS(=O)(=O)c1cc(NC(=O)Cc2ccccc2C(F)(F)F)ccc1-n1cc(Br)cn1 [Example 64, N-[4-(4-Bromo-1H-pyrazol-1-yl)-3-sulfamoylphenyl]-2-[2-(trifluoromethyl)-phenyl]acetamide] | 83 | 104 nM
Cc1nnc(-c2ccc(NC(=O)Cc3ccccc3Cl)cc2S(N)(=O)=O)o1 [Example 524, 2-(2-Chlorophenyl)-N-[4-(5-methyl-1,3,4-oxadiazol-2-yl)-3-sulfamoylphenyl]acetamide] | 87 | 322 nM
NS(=O)(=O)c1cc(NC(=O)Cc2ccccc2F)ccc1-c1cnn(C2CCNCC2)c1 [Example 270, 2-(2-Fluorophenyl)-N-{4-[1-(piperidin-4-yl)-1H-pyrazol-4-yl]-3-sulfamoylphenyl}acetamide] | 51 | > 25000 nM
Cc1cc(C(F)(F)F)nn1-c1ccc(NC(=O)Cc2ccccc2Cl)cc1S(N)(=O)=O [Example 15, 2-(2-Chlorophenyl)-N-{4-[5-methyl-3-(trifluoromethyl)-1H-pyrazol-1-yl]-3-sulfamoylphenyl}acetamide] | 99 | 379 nM
Cc1cc(C#N)nn1-c1ccc(NC(=O)Cc2ccccc2Cl)cc1S(N)(=O)=O [Example 545, 2-(2-Chlorophenyl)-N-[4-(3-cyano-5-methyl-1H-pyrazol-1-yl)-3-sulfamoylphenyl]acetamide] | 100 | 19 nM
NS(=O)(=O)c1cc(NC(=O)C(F)(F)c2ccccc2Cl)ccc1-n1cnc(C(F)(F)F)n1 [Example 61, 2-(2-Chlorophenyl)-2,2-difluoro-N-{3-sulfamoyl-4-[3-(trifluoromethyl)-1H-1,2,4-triazol-1-yl]phenyl}acetamide] | 79 | 400 nM

Results, then the compound that gave them:

Emax [%] | IC50 | Compound
86 | 133 nM | NS(=O)(=O)c1cc(NC(=O)Cc2c(F)cccc2Cl)ccc1-n1cc(C(F)(F)F)cn1 [Example 113, 2-(2-Chloro-6-fluorophenyl)-N-{3-sulfamoyl-4-[4-(trifluoromethyl)-1H-pyrazol-1-yl]phenyl}acetamide]
89 | 85 nM | CC(C)(O)c1cc(F)cc(-c2ccc(NC(=O)Cc3ccccc3F)cc2S(N)(=O)=O)c1 [Example 347, N-[3′-Fluoro-5′-(2-hydroxypropan-2-yl)-2-sulfamoylbiphenyl-4-yl]-2-(2-fluorophenyl)acetamide]
80 | 27 nM | NS(=O)(=O)c1cc(NC(=O)Cc2ccccc2Cl)ccc1-c1nnc(C2CC2)o1 [Example 377, 2-(2-Chlorophenyl)-N-[4-(5-cyclopropyl-1,3,4-oxadiazol-2-yl)-3-sulfamoylphenyl]-acetamide]
65 | 76 nM | NS(=O)(=O)c1cc(NC(=O)Cc2cc(F)cc(F)c2)ccc1-c1cncc(C(F)(F)F)c1 [Example 452, 2-(3,5-Difluorophenyl)-N-{3-sulfamoyl-4-[5-(trifluoromethyl)pyridin-3-yl]phenyl}acetamide]
68 | 96 nM | CC(C)c1cnn(-c2ccc(NC(=O)Cc3ccccc3Cl)cc2S(N)(=O)=O)c1 [Example 516, 2-(2-Chlorophenyl)-N-[4-(4-isopropyl-1H-pyrazol-1-yl)-3-sulfamoylphenyl]acetamide]
75 | 113 nM | CC(C)Cc1ncn(-c2ccc(NC(=O)Cc3ccccc3Cl)cc2S(N)(=O)=O)n1 [Example 29, 2-(2-Chlorophenyl)-N-[4-(3-isobutyl-1H-1,2,4-triazol-1-yl)-3-sulfamoylphenyl]-acetamide]
86 | 108 nM | NS(=O)(=O)c1cc(NC(=O)Cc2cccc(F)c2F)ccc1-n1cc(F)cn1 [Example 155, 2-(2,3-Difluorophenyl)-N-[4-(4-fluoro-1H-pyrazol-1-yl)-3-sulfamoylphenyl]acetamide]
81 | 524 nM | NS(=O)(=O)c1cc(NC(=O)Cc2ccccc2F)cnc1-n1cc(F)cn1 [Example 384, 2-(2-Fluorophenyl)-N-[6-(4-fluoro-1H-pyrazol-1-yl)-5-sulfamoylpyridin-3-yl]acetamide]
72 | 413 nM | COc1ccc(CC(=O)Nc2ccc(-n3cc(Cl)cn3)c(S(N)(=O)=O)c2)c(Cl)c1 [Example 94, 2-(2-Chloro-4-methoxyphenyl)-N-[4-(4-chloro-1H-pyrazol-1-yl)-3-sulfamoylphenyl]-acetamide]
68 | 51 nM | NS(=O)(=O)c1cc(NC(=O)Cc2ccc(Cl)cc2Cl)ccc1-n1cc(C(F)(F)F)nn1 [Example 417, 2-(2,4-Dichlorophenyl)-N-{3-sulfamoyl-4-[4-(trifluoromethyl)-1H-1,2,3-triazol-1-yl]phenyl}acetamide]
89 | 31 nM | N#Cc1cnn(-c2ccc(NC(=O)Cc3ccccc3Br)cc2S(N)(=O)=O)c1 [Example 188, 2-(2-Bromophenyl)-N-[4-(4-cyano-1H-pyrazol-1-yl)-3-sulfamoylphenyl]acetamide]
80 | 278 nM | NS(=O)(=O)c1cc(NC(=O)Cc2ccccc2Cl)ccc1-c1cnc(C(F)(F)F)nc1 [Example 306, 2-(2-Chlorophenyl)-N-{3-sulfamoyl-4-[2-(trifluoromethyl)pyrimidin-5-yl]phenyl}acetamide]
53 | 347 nM | NS(=O)(=O)c1cc(NC(=O)Cc2ccc(F)c(F)c2)ccc1-n1cc(C(F)(F)F)cn1 [Example 118, 2-(3,4-Difluorophenyl)-N-{3-sulfamoyl-4-[4-(trifluoromethyl)-1H-pyrazol-1-yl]phenyl}-acetamide]
51 | 267 nM | NS(=O)(=O)c1cc(NC(=O)Cc2ccccc2[N+](=O)[O-])ccc1-n1cc(C(F)(F)F)cn1 [Example 110, 2-(2-Nitrophenyl)-N-{3-sulfamoyl-4-[4-(trifluoromethyl)-1H-pyrazol-1-yl]phenyl}-acetamide]
